According to patent US20070207967A1, “Peptide Inhibitors of Matrix Metalloproteinase Activity” (CTT CANCER TARGETING TECHNOLOGIES OY, priority 2004, published 2007):

Assays:
uPAR [1] = experiment: uPAR cleavage on THP-1 cells; format: cell-based, human; conditions: InhI 20 μM, CTT 200 μM, aprotinin 25 μg/ml
From the text: (§1) uPAR clevage. […] Chymotrypsin cleavage was done without aprotinin.

uPAR [2] = experiment: uPAR cleavage on HT1080 cells; format: cell-based, human; conditions: for Inhibition of uPAR cleavage: HT1080, InhI 20 μM, aprotinin 25 μg/ml, benzamidine 20 μM, 48 h
From the text: as §1

HT1080 cells = experiment: Pericellular proteolysis (gelatinolysis) of HT1080 cells; format: cell-based, human; conditions: HT1080, 48 h, PDBu, fibronectin/FITC-labelled gelatin coating
Experimental: Pericellular proteolysis. Microtiter wells were coated with a mixture of fibronectin (10 μg/ml) and FITC-labelled gelatin (100 μg/ml) followed by saturation with 1% BSA in PBS. HT1080 cells (50 000 in 100 μl 0.1% BSA/DMEM) were incubated in the presence of 20 nM PDBu (4β-phorbol-12,13-dibutyrate, SigmaAldrich) and the peptides or the MMP-2/MMP-9 selective inhibitor InhI (Calbiochem). As a control non-activated cells and medium without the cells were used. Gelatinolysis after 48 hours was measured as the increase of fluorescence from a 50 μl aliquot of the conditioned medium using Wallac Victor^2 reader.

HT1080 fibrosarcoma = experiment: HT1080 invasion through matrigel; format: cell-based, human
Experimental: (§2) Cell migration and invasion. The cell migration assay was conducted using transwell migration chambers (8 μm pore size, Costar) in 10% serum-containing medium (2,14). Briefly, the membranes were coated on both sides with 40 μg/ml GST or with the β2 integrin ligand peptide […]-GST fusion (GST-LLG-C4) and blocked with complete medium. THP-1 cells (50 000/100 μl) were preincubated with the peptides for 1 h in serum-containing medium. The cells were allowed to migrate for 16 h and were then stained with crystal violet and counted (14). The HT1080 (20 000 cells/I100 μl) invasion assay was performed as the THP-1 migration, except that matrigel coated transwells (BD Biosciences) were used.

THP-1 monocytic cells = experiment: THP-1 cell migration on GST-LLG-C4; format: cell-based, human; conditions: GST-LLG-C4 substratum, 16 h
Experimental: as §2

CBD [3] = target: T1, CBD (Homo sapiens, UniProt P14780); experiment: Gelatin binding to immobilized CBD; conditions: biotinylated gelatin
T1 construct: CBD (amino acids Gly^204-Gly^373) was amplified from MMP-9 cDNA; made in house; host or cells: E. coli
Experimental: (§3) Gelatin and CBD binding assays. Recombinant CBD or human plasma fibronectin (Calbiochem) (0.2 μg/ml in TBS) was immobilized in microtiter wells. The wells were saturated with 1% BSA-PBST. Biotinylated gelatin (0.2 μg/ml in 1% BSA-PBST) was added with or without peptides at the concentrations indicated or with an excess of unlabelled gelatin (10 μg/ml) and allowed to bind for 1 h. Bound gelatin was detected with streptavidin-peroxidase. CBD binding to immobilized fibronectin, the 110-kDa fragment of fibronectin (Upstate Biotechnology) or urea-denaturated human plasma vitronectin (17) (1 μg/well) was studied using biotinylated CBD (5 μg/ml) in 1% BSA-PBST in the presence or absence of 20 μM peptides.

CBD [4] = target: T1, CBD; experiment: CBD binding to fibronectin and vitronectin, solid phase; conditions: 20 μM peptides, biotinylated CBD
Experimental: as §3

αM integrin I domain = αM integrin I domain (Homo sapiens, UniProt P11215); experiment: Pro-MMP-9 binding to αM integrin I domain
Experimental: Pro-MMP-9 and gelatin binding to leukocyte αM integrin. Pro-MMP-9 binding to the αM I domain in the presence of peptides was studied as described (12). Gelatin binding to the pro-MMP-^9/αMβ2 integrin complex was studied by immobilizing the integrin αMβ2 (12) or αIIbβ3 as a control (Enzyme Research Laboratories, South Bend, Ind.) (1 μg/well) in TBS/1 mM CaCl2/1 mM MgCl2 followed by saturation of the wells with 1% BSA in PB ST. Pro-MMP-9 (100 ng/well) was incubated for 2 h and the unbound pro-MMP-9 was washed away. Biotinylated gelatin (2.5 μg/ml) was allowed to bind for 30 min at room temperature. Bound gelatin was detected with streptavidin-peroxidase.

pro-MMP-9 [5] = target: T2, pro-MMP-9 (Homo sapiens, UniProt P14780); experiment: Pro-MMP-9 activation in THP-1 cells, zymography; format: cell-based; conditions: THP-1, pro-MMP-3 and plasminogen, peptides 200 μM
Experimental: Activation of MMP-9. THP-1 cells (40 000/100 μl) or confluent HT1080 cells were incubated for 16 h in the presence or absence of 2.5 μg/ml plasminogen, 0.5 μg/ml pro-MMP-3 (Oncogene Research Products), 40 nM PDBu, and the peptides at a 200 μM concentration unless otherwise indicated. Aliquots of the conditioned media were analyzed by gelatin zymography (9). […] The samples were analyzed by gelatin zymography.

gelatinase [6] = experiment: Gelatin degradation assay, gelatinase not specified; format: biochemical
Experimental: (§4) Gelatinase inhibition assay. Inhibition of aminophenylmercuric acetate (APMA)-activated MMP-2 and trypsin-activated MMP-9 was performed using biotinylated gelatin as a substrate (15).

[7] = target: T3, aminophenylmercuric acetate (APMA)-activated MMP-2 (Homo sapiens, UniProt P08253); experiment: Gelatinase inhibition assay (gelatin degradation), MMP-2; format: biochemical; conditions: biotinylated gelatin substrate
T3 sequence (P08253 110-660): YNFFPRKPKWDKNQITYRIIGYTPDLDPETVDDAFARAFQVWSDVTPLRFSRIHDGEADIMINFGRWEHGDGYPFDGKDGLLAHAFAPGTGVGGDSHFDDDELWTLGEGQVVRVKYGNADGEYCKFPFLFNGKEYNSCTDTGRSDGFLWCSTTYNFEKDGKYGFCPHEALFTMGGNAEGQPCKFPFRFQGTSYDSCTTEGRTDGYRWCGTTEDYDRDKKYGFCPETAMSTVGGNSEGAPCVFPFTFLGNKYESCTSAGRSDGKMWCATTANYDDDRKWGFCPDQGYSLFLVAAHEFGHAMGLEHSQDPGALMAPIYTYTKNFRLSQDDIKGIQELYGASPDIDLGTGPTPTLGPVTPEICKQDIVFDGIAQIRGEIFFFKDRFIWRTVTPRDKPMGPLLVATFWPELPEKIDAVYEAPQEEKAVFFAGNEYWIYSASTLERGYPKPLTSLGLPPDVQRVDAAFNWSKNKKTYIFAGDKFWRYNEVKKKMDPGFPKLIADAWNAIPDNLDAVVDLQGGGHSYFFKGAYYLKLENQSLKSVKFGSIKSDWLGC
Experimental: as §4

pro-MMP-9 [8] = target: T2, pro-MMP-9; experiment: Phage binding to pro-MMP-9 with competitors; conditions: competitor peptides 20 μM, gelatin 2.5 μg/ml; for Binding of the CRV-phage to pro-MMP-9, competition: TIMP-1 2.5 μg/ml
Experimental: (§5) Phage display. Phage display selections were made using random peptide libraries CX7-10C and X9-10 (13). Purified human pro-MMP-9 (9) or recombinant MMP-9 C domain (2 μg/ml) was immobilized on microtiter wells and the wells were blocked with BSA. The phage were added in 50 mM Hepes (pH 7.5)/5 mM CaCl2/1 μM ZnCl2/150 mM NaCl/2% BSA. After three rounds of selection the phage sequences were determined (14). The phage binding specificity was tested with pro-MMPs or the recombinant domains (20 ng/well). The phage (10^8 transducing units/well) were allowed to bind in the absence or presence of competitor peptides (20 μM), gelatin (2.5 μg/ml) or TIMP-1 (2.5 μg/ml, Calbiochem) followed by washings with PBS/0.05% Tween20 (PBST). The phage were detected with a peroxidase-conjugated anti-phage antibody (Amersham Biosciences).

trypsin-activated MMP-9 = trypsin-activated MMP-9 (Homo sapiens, UniProt P14780); experiment: Gelatinase inhibition assay (gelatin degradation), MMP-9; format: biochemical; conditions: biotinylated gelatin substrate
Experimental: as §4

fibronectin = experiment: Gelatin binding to fibronectin; set-up: species or system human; conditions: data not shown
Experimental: as §3

gelatinase [9] = conditions: 100 μM concentration; ref (15); cited from earlier work
MMP-9 C domain = target: T4, MMP-9 C domain (Homo sapiens, UniProt P14780); experiment: CRV phage binding to recombinant MMP-9 C domain; conditions: TIMP-1 2.5 μg/ml
T4 construct: MMP-9 (Asp^494-Asp^688) were expressed as described (16); made in house; host or cells: E. coli (β5 fragment)
T4 sequence (P14780 513-707 limits assumed): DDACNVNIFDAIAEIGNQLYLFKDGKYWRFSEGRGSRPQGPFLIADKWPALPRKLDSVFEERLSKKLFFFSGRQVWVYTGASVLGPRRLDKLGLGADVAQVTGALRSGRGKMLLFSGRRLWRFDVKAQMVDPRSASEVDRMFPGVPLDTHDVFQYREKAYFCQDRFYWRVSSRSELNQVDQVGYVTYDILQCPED
Experimental: as §5
Expression of the MMP and integrin domains. CBD (amino acids Gly^204-Gly^373) was amplified from MMP-9 cDNA with the oligonucleotides 5′-[…]-3′ and 5′-[…]-3′ incorporating NdeI and PstI restriction sites. The PCR product was ligated into pTWIN vector (New England Biolabs). CBD was expressed in E. coli and purified using gelatin-sepharose (Amersham Biosciences). For some experiments, CBD was biotinylated with sulfo-NHS-LC-biotin (Pierce). The C-terminal domains of MMP-2 (Glu^438-Cys^631) and MMP-9 (Asp^494-Asp^688) were expressed as described (16). […]

CBD [10] = target: T1, CBD; experiment: Pepspot membrane assay of CBD binding; conditions: 0.2 μg/ml biotinylated CBD
Experimental: Peptide synthesis. The phage peptides were initially prepared in a recombinant form using intein fusions (12,15). Chemical peptide synthesis was done using Fmoc-chemistry and the purity and integrity of the peptides was verified by mass spectroscopy (15). The peptides were dissolved in water, except the CRV and DDGW peptides, which were dissolved in 50 mM NaOH at a 10 mM concentration and then diluted into PBS to neutralize the pH. The […] and […] peptides were synthesized on a cellulose membrane. The membrane was blocked with 3% BSA in TBS/0.05% Tween 20, and incubated with 0.2 μg/ml biotinylated CBD. Bound CBD was detected using peroxidase-conjugated streptavidin (1:10 000 dilution, Pierce) and chemiluminescence detection.

T1 sequence (P14780 223-392 limits assumed): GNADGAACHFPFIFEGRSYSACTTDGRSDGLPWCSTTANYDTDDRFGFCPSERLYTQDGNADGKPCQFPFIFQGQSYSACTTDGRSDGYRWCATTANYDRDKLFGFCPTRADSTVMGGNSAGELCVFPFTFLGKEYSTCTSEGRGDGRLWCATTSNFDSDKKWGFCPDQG
T2 sequence (P14780 20-707 limits assumed): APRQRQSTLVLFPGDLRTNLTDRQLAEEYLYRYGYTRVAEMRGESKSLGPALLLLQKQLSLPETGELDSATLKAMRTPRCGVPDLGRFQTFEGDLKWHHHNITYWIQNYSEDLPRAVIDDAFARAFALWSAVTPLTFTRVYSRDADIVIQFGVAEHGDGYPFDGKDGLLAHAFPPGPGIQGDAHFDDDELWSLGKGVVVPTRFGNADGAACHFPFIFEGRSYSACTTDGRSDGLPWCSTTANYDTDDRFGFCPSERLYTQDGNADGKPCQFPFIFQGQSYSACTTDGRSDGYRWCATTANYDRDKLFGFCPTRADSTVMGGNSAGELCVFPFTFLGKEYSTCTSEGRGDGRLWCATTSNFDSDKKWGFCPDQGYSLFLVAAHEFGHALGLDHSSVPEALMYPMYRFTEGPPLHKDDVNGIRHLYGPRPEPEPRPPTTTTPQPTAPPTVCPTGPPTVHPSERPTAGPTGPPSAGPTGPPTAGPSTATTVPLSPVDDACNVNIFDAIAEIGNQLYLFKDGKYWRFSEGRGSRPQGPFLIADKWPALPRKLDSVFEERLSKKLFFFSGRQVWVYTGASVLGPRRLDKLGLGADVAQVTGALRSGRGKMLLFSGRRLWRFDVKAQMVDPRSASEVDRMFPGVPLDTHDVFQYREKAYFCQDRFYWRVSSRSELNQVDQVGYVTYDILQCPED
αM integrin I domain, sequence (P11215 150-328 limits assumed): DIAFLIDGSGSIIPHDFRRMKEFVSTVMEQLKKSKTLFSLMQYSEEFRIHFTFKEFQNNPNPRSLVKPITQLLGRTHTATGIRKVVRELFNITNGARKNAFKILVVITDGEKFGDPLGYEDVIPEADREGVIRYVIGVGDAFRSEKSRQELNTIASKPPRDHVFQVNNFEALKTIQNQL
trypsin-activated MMP-9, sequence (P14780 107-707 limits assumed): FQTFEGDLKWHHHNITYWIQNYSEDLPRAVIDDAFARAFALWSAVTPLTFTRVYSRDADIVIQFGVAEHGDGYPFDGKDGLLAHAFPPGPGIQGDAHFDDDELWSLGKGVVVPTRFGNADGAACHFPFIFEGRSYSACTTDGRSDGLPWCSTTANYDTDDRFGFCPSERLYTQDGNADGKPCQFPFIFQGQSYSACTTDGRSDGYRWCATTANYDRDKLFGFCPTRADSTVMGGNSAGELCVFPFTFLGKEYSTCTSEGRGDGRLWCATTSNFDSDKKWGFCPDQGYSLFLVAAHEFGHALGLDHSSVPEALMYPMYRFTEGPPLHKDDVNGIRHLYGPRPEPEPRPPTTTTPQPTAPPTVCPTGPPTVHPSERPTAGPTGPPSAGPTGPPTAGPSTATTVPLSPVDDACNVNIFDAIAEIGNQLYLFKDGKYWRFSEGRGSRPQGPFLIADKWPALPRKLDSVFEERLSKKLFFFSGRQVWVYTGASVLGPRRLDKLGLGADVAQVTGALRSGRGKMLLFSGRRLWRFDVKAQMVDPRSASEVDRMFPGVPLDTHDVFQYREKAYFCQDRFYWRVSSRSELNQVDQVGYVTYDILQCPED
fibronectin, sequence (P02751 306-608 limits assumed): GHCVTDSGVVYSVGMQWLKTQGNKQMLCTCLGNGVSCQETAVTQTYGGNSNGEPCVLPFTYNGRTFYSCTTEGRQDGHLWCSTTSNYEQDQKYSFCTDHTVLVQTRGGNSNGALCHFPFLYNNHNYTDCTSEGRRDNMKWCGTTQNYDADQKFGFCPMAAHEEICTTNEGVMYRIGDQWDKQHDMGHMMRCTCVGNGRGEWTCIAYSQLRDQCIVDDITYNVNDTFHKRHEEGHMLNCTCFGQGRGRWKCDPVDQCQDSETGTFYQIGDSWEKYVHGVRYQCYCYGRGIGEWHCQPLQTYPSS

O=C(O)[C@@H](Cc1ccccc1)NS(=O)(=O)c1ccc(-c2ccccc2)cc1 [InhI]
Inhibition of uPAR cleavage (uPAR [1]): inhibited
Level of cell surface-bound uPA (uPAR [2]; HT1080, InhI 20 μM): reduced
Inhibition of uPAR cleavage (uPAR [2]): inhibited uPAR cleavage
Inhibition of pericellular gelatinolysis (HT1080 cells): inhibited

N=C(N)c1ccccc1 [benzamidine]
Inhibition of uPAR cleavage (uPAR [2]): not

ADGACGYGRFSPPCGAAG
IC50 (HT1080 fibrosarcoma; matrigel, read-out: Concentration required to achieve the same efficacy (50% inhibition of HT1080 invasion)): 500 µM
Inhibition of THP-1 migration (THP-1 monocytic cells): inhibitory effect
Inhibition of gelatin binding to immobilized CBD (CBD [3]): inhibited gelatin binding to immobilized CBD in a dose dependent manner
Inhibition of CBD binding to fibronectin and vitronectin (CBD [4]): inhibited
Effect on interaction of MMP-9 with the leukocyte αM integrin I domain (αM integrin I domain): do not affect
Higher pro-MMP-9 binding to the I domain in the presence of peptide (αM integrin I domain; typically): 20-50%
Effect on pro-MMP-9 activation (pro-MMP-9 [5]): augmented
Gelatinase inhibitor strength relative to CTT (gelatinase [6]): weaker gelatinase inhibitor than CTT
Inhibition of MMP-2 activity in gelatin degradation assay [7]: inhibited
Binding of PPC peptide-bearing phage to pro-MMP-9, competition (pro-MMP-9 [8]): inhibited
Binding of the CRV-phage to pro-MMP-9, competition (pro-MMP-9 [8]): not
Inhibition of MMP-9 activity in gelatin degradation assay (trypsin-activated MMP-9): inhibited
Inhibition of pericellular gelatinolysis (HT1080 cells): inhibited
Effect on gelatin binding to fibronectin (fibronectin): no effect

ADGACPSYGPRFGCGAAG [scr. PPC, scrambled control peptide of PPC, reference compound]
Inhibition of MMP-2 activity in gelatin degradation assay [7]: no effect
Inhibition of MMP-9 activity in gelatin degradation assay (trypsin-activated MMP-9): no effect

CTTHWGFTLC [reference compound]
Inhibition of uPAR cleavage (uPAR [1]): inhibited
Inhibition of HT1080 invasion into matrigel (HT1080 fibrosarcoma; 200 μM concentration): 50%
Inhibition of THP-1 migration (THP-1 monocytic cells): inhibitory effect
Inhibition of gelatin binding to immobilized CBD (CBD [3]): not
Inhibition of gelatin degradation (gelatinase [9]): completely inhibits
Binding of PPC peptide-bearing phage to pro-MMP-9, competition (pro-MMP-9 [8]): not
Binding of the CRV-phage to pro-MMP-9, competition (pro-MMP-9 [8]): not
Inhibition of pericellular gelatinolysis (HT1080 cells): inhibited

TIMP-1: tissue inhibitor of MMPs (Calbiochem)
Binding of the CRV-phage to pro-MMP-9, competition (pro-MMP-9 [8]): could not compete
CRV phage binding to the MMP-9 C domain, competition (MMP-9 C domain): could not compete

TTPNSLLVSWQPPRARIT [PPC-like fibronectin peptide]
Binding of biotinylated CBD to peptide on pepspot membrane (CBD [10]): bound

aprotinin
Inhibition of uPAR cleavage (uPAR [1]): not
Inhibition of uPAR cleavage (uPAR [2]): not

gelatin
Binding of PPC peptide-bearing phage to pro-MMP-9, competition (pro-MMP-9 [8]): inhibited
Binding of the CRV-phage to pro-MMP-9, competition (pro-MMP-9 [8]): not
